Results: patent publication US20090227619A1, “Harmine derivatives, intermediates used in their preparations, preparation processes and use therefo” (priority 2003, published 2009)
pIC50: −log10 of the molar value. Read-outs that look alike come from different tables or passages of the source.

Tests used:
Lovo = assay: In vitro cytotoxicity, IC50 by MTT method, Lovo; assay type: cell-based; settings: Homo sapiens
Summary of the method: (§1)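 Cells in RPMI1640 with 10% FBS at 37° C, 5% CO2 were seeded at 10^5/ml and exposed to a compound concentration gradient for 48 h, at least three replicates, solvent controls.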

PLA-801 = assay: In vitro cytotoxicity, IC50 by MTT method, PLA-801; assay type: cell-based
Summary of the method: as §1

Bel-7402 = assay: In vitro cytotoxicity, IC50 by MTT method, Bel-7402; assay type: cell-based; settings: Homo sapiens, Bel-7402
Summary of the method: as §1

Kunming mice [1] = settings: summary Table 34, compounds marked *, results [153] of the previous tests; in mg/kg; cited from earlier work
Lewis lung cancer = settings: for Body weight of the animals, end, First time / Body weight of the animals, end, Second time / Body weight of the animals, beginning, First time / Inhibition rate, First time / Weight of the tumor X ± SD, First time / Body weight of the animals, beginning, Second time / Inhibition rate, Second time / Weight of the tumor X ± SD, Second time / Inhibition rate (%) Lewis cancer: Lewis lung cancer; for Body weight of the animals, end, First time / Body weight of the animals, end, Second time: ip × 10qd; for Inhibition rate (%) Lewis cancer: comparison table 43, in vivo;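 as to all read-outs here: mice implanted subcutaneously in the axilla with Lewis lung tumor cells, treated starting the following day, killed roughly three weeks after implantation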
HepG2 = assay: In vitro cytotoxicity, IC50 by MTT method, HepG2; assay type: cell-based, human; settings: Homo sapiens
Summary of the method: as §1

BGC-823 = assay: In vitro cytotoxicity, IC50 by MTT method, BGC-823; assay type: cell-based; settings: Homo sapiens, BGC-823
Summary of the method: as §1

Hela = assay: In vitro cytotoxicity, IC50 by MTT method, Hela; assay type: cell-based; settings: Homo sapiens
Summary of the method: as §1

S180 sarcoma = settings: S180 sarcoma; for Body weight of the animals, beginning, First time / Body weight of the animals, end, First time / Inhibition rate, First time / Weight of the tumor X ± SD, First time / Body weight of the animals, beginning, Second time / Body weight of the animals, end, Second time / Inhibition rate, Second time: ip × 10qd; for Inhibition rate (%) S180 sarcomata: comparison table 43, in vivo
NIH3T3 = assay: In vitro cytotoxicity, IC50 by MTT method, NIH3T3; assay type: cell-based; settings: Mus musculus
Summary of the method: as §1

in vivo = settings: both, Kunming, mouse, ip
Protocol: (§2) Five grades of dosages for each sample according to the results of the preliminary test, each dosage being 0.8 larger than the previous one
(§3) During the experiment, each sample was added a small amount of Tween-80 to facilitate dissolution after the sample was weighed, and then 0.5% CMC-Na solution was gradually added to achieve the desired concentration. The experimental volume was 0.5 ml/20 g mouse.
(§4) Single injection via intraperitoneal (i.p.) to different groups mice.
(§5) Kunming mice were divided into different groups randomly according to their sex. The medicament was intraperitoneally administered to each group of mice according to the dosage setting. After the administration of the medicaments, mice were observed continuously for the first 2 h for any gross behavioral changes and deaths. Dead animals were dissected and examined for any possible organ damage. […] Conditions of animals died within two week were recorded. After two weeks, all survived animals were sacrificed and checked macroscopically for possible damage to the heart, liver, kidneys and so on. Viscera that had substantive pathological changes were pathologically examined.

[2] = Solubility (physico-chemical data tables); settings: qualitative; Table 12, 3,9-disubstituted β-carboline derivatives
Kunming mice [3] = settings: for Death rate: single i.p.
Protocol: as §2, §3, §4, §5

CT-DNA = assay: UV absorption spectrum method with CT-DNA; assay type: binding; settings: CT-DNA 40 ug/ml, compound 20 uM, 37° C. for 2 h, OD at 260 nm
[4] = Lovo cell strain, read-out: IC50 Lovo
[5] = PLA-801 cell strain, read-out: IC50 PLA-801
[6] = Bel7402 cell strain, read-out: IC50 Bel7402
[7] = HepG2 cell strain, read-out: IC50 HepG2
[8] = BGC823 cell strain, read-out: IC50 BGC823
[9] = Hela cell strain, read-out: IC50 Hela
[10] = NIH3T3 cell strain, read-out: IC50 NIH3T3
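For Death rate in this document: acute toxicity in Kunming mice grouped by sex, one intraperitoneal dose at five graded levels in Tween-80 plus 0.5% CMC-Na, deaths monitored over two weeks.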

Structure (SMILES): O=C(O)c1cc2c(cn1)[nH]c1ccccc12 [Compound 17, β-carboline-3-carboxylic acid]
- pIC50 (Lovo; Lovo, MTT, read-out: IC50): 3.77
- pIC50 (PLA-801; PLA-801, MTT, read-out: IC50): 3.52
- pIC50 (Bel-7402; BeI7402, MTT, read-out: IC50): 3.64
- LD50 (Kunming mice [1]): 135.22
- Body weight of the animals, end, First time (Lewis lung cancer; Dosage 50 (mg/ml)): 25.4 g
- Body weight of the animals, end, Second time (Lewis lung cancer; Dosage 50 (mg/ml)): 25.4 g
- Body weight of the animals, beginning, First time (Lewis lung cancer; Dosage 50, ip × 10qd): 19.2 g
- Inhibition rate, First time (Lewis lung cancer; Dosage 50, ip × 10qd): 31.40%
- Weight of the tumor X ± SD, First time (Lewis lung cancer; Dosage 50, ip × 10qd): 2.01 ± 0.28 g
- Body weight of the animals, beginning, Second time (Lewis lung cancer; Dosage 50, ip × 10qd): 20.2 g
- Inhibition rate, Second time (Lewis lung cancer; Dosage 50, ip × 10qd): 27.98%
- Weight of the tumor X ± SD, Second time (Lewis lung cancer; Dosage 50, ip × 10qd): 1.75 ± 0.09 g
- Body weight of the animals, end, First time (Lewis lung cancer; Dosage 100 (mg/ml)): 24.8 g
- Body weight of the animals, end, Second time (Lewis lung cancer; Dosage 100 (mg/ml)): 24.9 g
- Body weight of the animals, beginning, First time (Lewis lung cancer; Dosage 100, ip × 10qd): 19.0 g
- Inhibition rate, First time (Lewis lung cancer; Dosage 100, ip × 10qd): 37.20%
- Weight of the tumor X ± SD, First time (Lewis lung cancer; Dosage 100, ip × 10qd): 1.84 ± 0.48 g
- Body weight of the animals, beginning, Second time (Lewis lung cancer; Dosage 100, ip × 10qd): 20.4 g
- Inhibition rate, Second time (Lewis lung cancer; Dosage 100, ip × 10qd): 37.86%
- Weight of the tumor X ± SD, Second time (Lewis lung cancer; Dosage 100, ip × 10qd): 1.51 ± 0.09 g
- Inhibition rate (%) Lewis cancer (Lewis lung cancer): 33.4%
- pIC50 (HepG2; HepG2, MTT, read-out: IC50): 3.55
- pIC50 (BGC-823; BGC823, MTT, read-out: IC50): 3.55
- pIC50 (Hela; Hela, MTT, read-out: IC50): 3.66
- Body weight of the animals, beginning, First time (S180 sarcoma; Dosage 50 (mg/ml)): 19.2 g
- Body weight of the animals, end, First time (S180 sarcoma; Dosage 50 (mg/ml)): 24.7 g
- Inhibition rate, First time (S180 sarcoma; Dosage 50 (mg/ml)): 23.97%
- Weight of the tumor X ± SD, First time (S180 sarcoma; Dosage 50 (mg/ml)): 2.03 ± 0.24 g
- Body weight of the animals, beginning, Second time (S180 sarcoma; Dosage 50 (mg/ml)): 18.5 g
- Body weight of the animals, end, Second time (S180 sarcoma; Dosage 50 (mg/ml)): 25.9 g
- Inhibition rate, Second time (S180 sarcoma; Dosage 50 (mg/ml)): 25.19%
- Weight of the tumor X ± SD, Second time (S180 sarcoma; Dosage 50, ip × 10qd): 2.02 ± 0.21 g
- Body weight of the animals, beginning, First time (S180 sarcoma; Dosage 100 (mg/ml)): 19.3 g
- Body weight of the animals, end, First time (S180 sarcoma; Dosage 100 (mg/ml)): 24.2 g
- Inhibition rate, First time (S180 sarcoma; Dosage 100 (mg/ml)): 35.21%
- Weight of the tumor X ± SD, First time (S180 sarcoma; Dosage 100 (mg/ml)): 1.73 ± 0.16 g
- Body weight of the animals, beginning, Second time (S180 sarcoma; Dosage 100 (mg/ml)): 18.6 g
- Body weight of the animals, end, Second time (S180 sarcoma; Dosage 100 (mg/ml)): 25.3 g
- Inhibition rate, Second time (S180 sarcoma; Dosage 100 (mg/ml)): 32.96%
- Weight of the tumor X ± SD, Second time (S180 sarcoma; Dosage 100, ip × 10qd): 1.81 ± 0.20 g
- Inhibition rate (%) S180 sarcomata (S180 sarcoma): 32.2%
- pIC50 (NIH3T3; NIH3T3, MTT, read-out: IC50): 4.22

Structure (SMILES): COC(=O)c1cc2c3ccccc3n(C)c2cn1 [Compound 26, methyl 9-methyl-β-carboline-3-carboxylate]
- pIC50 (Lovo; [4]): 3.74
- pIC50 (PLA-801; [5]): 3.92
- pIC50 (Bel-7402; [6]): 3.72
- LD50 (Kunming mice [1]): 70.61
- Inhibition rate (%) Lewis cancer (Lewis lung cancer): 35.0%
- pIC50 (HepG2; [7]): 3.92
- pIC50 (BGC-823; [8]): 3.74
- pIC50 (Hela; [9]): 3.74
- Inhibition rate (%) S180 sarcomata (S180 sarcoma): 31.1%
- pIC50 (NIH3T3; [10]): 4.05

Structure (SMILES): CCn1c2ccccc2c2cc(C(=O)OC)ncc21 [Compound 27, methyl 9-ethyl-β-carboline-3-carboxylate]
- pIC50 (Lovo; [4]): 3.96
- pIC50 (PLA-801; [5]): 3.54
- pIC50 (Bel-7402; [6]): 3.28
- LD50 (Kunming mice [1]): 95.06
- Anti-tumor activity compared with harmine (compound 1) (Lewis lung cancer; Lewis lung cancer in mice, among 22 compounds tested): a little worse than or equivalent to that of harmines
- Inhibition rate (%) Lewis cancer (Lewis lung cancer): 30.5%
- pIC50 (HepG2; [7]): 3.80
- pIC50 (BGC-823; [8]): 3.60
- pIC50 (Hela; [9]): 3.68
- Inhibition rate (%) S180 sarcomata (S180 sarcoma): 29.0%
- pIC50 (NIH3T3; [10]): 3.89

Structure (SMILES): O=C(O)c1cc2c3ccccc3n(Cc3ccccc3)c2cn1 [Compound 37, 9-benzyl-β-carboline-3-carboxylic acid]
- LD50 at 2 weeks (in vivo): 163 mg/kg
- pIC50 (Lovo; [4]): 4.40
- Solubility [2]: soluble in DMSO
- pIC50 (PLA-801; [5]): 4.00
- pIC50 (Bel-7402; [6]): 3.96
- Death rate (Kunming mice [3]; 50% male 50% female mice, 240 mg/kg): 100
- Death rate (Kunming mice [3]; 50% male 50% female mice, 300 mg/kg): 100
- Death rate (Kunming mice [3]; female mice, 240 mg/kg): 100
- Death rate (Kunming mice [3]; female mice, 300 mg/kg): 100
- Death rate (Kunming mice [3]; male mice, 240 mg/kg): 100
- Death rate (Kunming mice [3]; male mice, 300 mg/kg): 100
- LD50 (Kunming mice [3]; mouse, in vivo, ip): 142 to 189 mg/kg
- Body weight of the animals, end, First time (Lewis lung cancer; Dosage 25 (mg/ml)): 24.1 g
- Body weight of the animals, end, Second time (Lewis lung cancer; Dosage 25 (mg/ml)): 24.9 g
- Body weight of the animals, beginning, First time (Lewis lung cancer; Dosage 25, ip × 10qd): 18.6 g
- Inhibition rate, First time (Lewis lung cancer; Dosage 25, ip × 10qd): 27.09%
- Weight of the tumor X ± SD, First time (Lewis lung cancer; Dosage 25, ip × 10qd): 1.83 ± 0.17 g
- Body weight of the animals, beginning, Second time (Lewis lung cancer; Dosage 25, ip × 10qd): 19.6 g
- Inhibition rate, Second time (Lewis lung cancer; Dosage 25, ip × 10qd): 29.24%
- Weight of the tumor X ± SD, Second time (Lewis lung cancer; Dosage 25, ip × 10qd): 1.67 ± 0.16 g
- Body weight of the animals, end, First time (Lewis lung cancer; Dosage 50 (mg/ml)): 23.9 g
- Body weight of the animals, end, Second time (Lewis lung cancer; Dosage 50 (mg/ml)): 24.3 g
- Body weight of the animals, beginning, First time (Lewis lung cancer; Dosage 50, ip × 10qd): 18.9 g
- Inhibition rate, First time (Lewis lung cancer; Dosage 50, ip × 10qd): 39.04%
- Weight of the tumor X ± SD, First time (Lewis lung cancer; Dosage 50, ip × 10qd): 1.53 ± 0.14 g
- Body weight of the animals, beginning, Second time (Lewis lung cancer; Dosage 50, ip × 10qd): 19.5 g
- Inhibition rate, Second time (Lewis lung cancer; Dosage 50, ip × 10qd): 43.22%
- Weight of the tumor X ± SD, Second time (Lewis lung cancer; Dosage 50, ip × 10qd): 1.34 ± 0.14 g
- Inhibition rate (%) Lewis cancer (Lewis lung cancer): 43.22%
- pIC50 (HepG2; [7]): 4.00
- pIC50 (BGC-823; [8]): 4.30
- Influence on the UV absorption of DNA (CT-DNA): increase the UV absorption of DNA
- pIC50 (Hela; [9]): 4.05
- Body weight of the animals, beginning, First time (S180 sarcoma; Dosage 25 (mg/ml)): 19.6 g
- Body weight of the animals, end, First time (S180 sarcoma; Dosage 25 (mg/ml)): 26.9 g
- Inhibition rate, First time (S180 sarcoma; Dosage 25 (mg/ml)): 23.86%
- Weight of the tumor X ± SD, First time (S180 sarcoma; Dosage 25 (mg/ml)): 2.17 ± 0.18 g
- Body weight of the animals, beginning, Second time (S180 sarcoma; Dosage 25 (mg/ml)): 20.4 g
- Body weight of the animals, end, Second time (S180 sarcoma; Dosage 25 (mg/ml)): 25.1 g
- Inhibition rate, Second time (S180 sarcoma; Dosage 25 (mg/ml)): 24.21%
- Weight of the tumor X ± SD, Second time (S180 sarcoma; Dosage 25, ip × 10qd): 2.16 ± 0.27 g
- Body weight of the animals, beginning, First time (S180 sarcoma; Dosage 50 (mg/ml)): 19.7 g
- Body weight of the animals, end, First time (S180 sarcoma; Dosage 50 (mg/ml)): 26.3 g
- Inhibition rate, First time (S180 sarcoma; Dosage 50 (mg/ml)): 34.39%
- Weight of the tumor X ± SD, First time (S180 sarcoma; Dosage 50 (mg/ml)): 1.87 ± 0.13 g
- Body weight of the animals, beginning, Second time (S180 sarcoma; Dosage 50 (mg/ml)): 20.6 g
- Body weight of the animals, end, Second time (S180 sarcoma; Dosage 50 (mg/ml)): 24.7 g
- Inhibition rate, Second time (S180 sarcoma; Dosage 50 (mg/ml)): 32.98%
- Weight of the tumor X ± SD, Second time (S180 sarcoma; Dosage 50, ip × 10qd): 1.91 ± 0.23 g
- Inhibition rate (%) S180 sarcomata (S180 sarcoma): 34.39%
- pIC50 (NIH3T3; [10]): 4.30
